Patent publication US20250018014A1, “METHOD FOR TREATING AND/OR PREVENTING REGNASE-1-RELATED DISEASE” (OSAKA UNIVERSITY, priority 2018, published 2025)
Like-named read-outs stand apart in the source and are kept apart here. Residues, ends and D or L forms follow the SMILES beside them.

Columns and labels:
[1] = biological target: T1, FL_Reg1 (full-length human Regnase-1) phosphorylation by IKKβ (Homo sapiens, UniProt Q5D1E8); experiment: Regnase-1 phosphorylation inhibition by compounds (AlphaScreen), IKKβ, full-length Regnase-1; assay type: biochemical
T1 construct: made in house; host or cells: Expi293 cells
T1 sequence (Q5D1E8 1-599): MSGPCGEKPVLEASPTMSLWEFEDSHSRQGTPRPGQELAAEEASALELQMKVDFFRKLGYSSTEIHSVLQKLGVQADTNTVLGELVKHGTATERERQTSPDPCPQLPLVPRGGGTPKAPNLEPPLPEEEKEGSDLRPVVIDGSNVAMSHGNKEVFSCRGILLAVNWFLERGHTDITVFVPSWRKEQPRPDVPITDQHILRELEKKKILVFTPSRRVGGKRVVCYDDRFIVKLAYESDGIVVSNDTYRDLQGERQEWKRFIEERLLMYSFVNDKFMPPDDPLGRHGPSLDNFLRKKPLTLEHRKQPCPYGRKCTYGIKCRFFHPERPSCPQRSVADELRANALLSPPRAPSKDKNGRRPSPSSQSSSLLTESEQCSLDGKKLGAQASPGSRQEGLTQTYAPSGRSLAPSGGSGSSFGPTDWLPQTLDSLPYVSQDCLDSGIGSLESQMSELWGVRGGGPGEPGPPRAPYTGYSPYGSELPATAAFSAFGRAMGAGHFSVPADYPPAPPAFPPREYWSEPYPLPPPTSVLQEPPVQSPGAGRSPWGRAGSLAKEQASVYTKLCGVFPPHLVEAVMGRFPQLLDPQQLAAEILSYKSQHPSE
From the text: The full-length sequence of human Regnase-1 (UniProt ID: Q5D1E8) was used to prepare a construct having a FLAG tag on the N-terminal side and a recognition sequence for biotin ligase BirA on the C-terminal side (FL_Reg1) as a target protein. The above-mentioned Regnase-1 was expressed in mammalian Expi293 cells, purified with FLAG M2 agarose, and isolated by gel filtration chromatography. When biotinylation was required, methods from nonpatent documents (BMC biotechnology, 2008,8,41; and Protein Science, 1999,8,921-929) were used. […]
Using Kinase assay buffer III (manufactured by SignalChem) supplemented with 2 mM DTT, 100 μM sodium vanadate, and 2 mM manganese chloride, kinase (IKKβ (manufactured by SignalChem) or TBK1 (manufactured by SignalChem)) and Regnase-1 were reacted in the presence of 10 μM ATP at room temperature for 2 hours to perform a phosphorylation reaction.
Phosphorylated Regnase-1 was detected by the AlphaScreen system. After each of the above-mentioned phosphorylated Regnase-1 antibodies was added and reacted at room temperature for one hour, anti-FLAG AlphaLISA Acceptor Beads (manufactured by PerkinElmer) and Protein A AlphaScreen Donor Beads (manufactured by PerkinElmer) were added, and EnVision (manufactured by PerkinElmer) was used to measure the excited luminescence. As a result, phosphorylated Regnase-1 produced by the phosphorylation reaction by kinase was specifically detected, and signals were confirmed to be enhanced in a manner dependent on Regnase-1 and kinase concentrations (FIG. 24).
After mixing 2 nM of the above-mentioned Regnase-1 and the compound, phosphorylated Regnase-1 produced by the phosphorylation reaction was detected by the AlphaScreen system. As the results, the inhibition rate was calculated from the signals obtained when adding the compound at each concentration, by defining the signal obtained with Regnase-1 alone to be 100% inhibition rate, and the signal obtained when the same amount of solvent (DMSO) is added in place of the compound as 0% inhibition rate. The 50% inhibition concentration (μM) was calculated from the obtained dose response curve (Table 11).

[2] = biological target: T2, binding between IKKβ and full-length Regnase-1 (FL_Reg1) (Homo sapiens, UniProt Q5D1E8); experiment: Inhibition of kinase-Regnase-1 binding by the compounds (AlphaScreen), IKKβ
T2 construct: made in house; host or cells: Expi293 cells
T2 sequence (Q5D1E8 1-599): T1 sequence (Q5D1E8 1-599)
Method: (§1) As a target protein, a construct having a FLAG tag on the N-terminal side and a recognition sequence for biotin ligase BirA on the C-terminal side of the full-length sequence of human Regnase-1 (UniProt ID: Q5D1E8) was prepared (FL_Reg1). The above-mentioned Regnase-1 was expressed in mammalian Expi293 cells, purified with FLAG M2 agarose, and isolated by gel filtration chromatography. When biotinylation was required, methods from nonpatent documents (BMC biotechnology, 2008,8,41; and Protein Science, 1999,8,921-929) were used.
(§2) After mixing 2.5 nM of the above-mentioned Regnase-1 and the compound, 2.5 nM of IKKβ or TBK1 was added and reacted at room temperature for two hours. Then, Anti FLAG AlphaLISA Acceptor Beads (manufactured by PerkinElmer) and Glutathione-coated AlphaScreen Donor Beads (manufactured by PerkinElmer) were added, and excited luminescence was measured using En Vision (manufactured by PerkinElmer). As the results, the inhibition rate from the signals obtained when adding the compound at each concentration were calculated, by defining the signal obtained with Regnase-1 alone to be 100% inhibition rate, and the signal obtained when the same amount of solvent (DMSO) is added in place of the compound as 0% inhibition rate. The 50% inhibition concentration (μM) was calculated from the obtained dose response curve (Table 12).

[3] = biological target: T3, binding between TBK1 and full-length Regnase-1 (FL_Reg1) (Homo sapiens, UniProt Q5D1E8); experiment: Inhibition of kinase-Regnase-1 binding by the compounds (AlphaScreen), TBK1
T3 construct: made in house; host or cells: Expi293 cells
T3 sequence (Q5D1E8 1-599): T1 sequence (Q5D1E8 1-599)
Method: as §1, §2

[4] = Table 14, phosphorylation by IKKβ, read-out: Phosphorylation inhibition FL_Reg1, 50% inhibition concentration (IKKβ)
[5] = Table 14, binding between IKKβ and Regnase-1, read-out: Binding inhibition FL_Reg1, 50% inhibition concentration (IKKβ)
[6] = Table 13, binding between TBK1 and Regnase-1, read-out: Binding inhibition FL_Reg1, 50% inhibition concentration (TBK1)
[7] = Table 11, 2 nM Regnase-1, AlphaScreen, read-out: 50% inhibition concentration, Regnase-1 phosphorylation, FL_Reg1, IKKβ
[8] = Table 12, 2.5 nM Regnase-1, 2.5 nM IKKβ, AlphaScreen, read-out: 50% inhibition concentration, binding between Regnase-1 and IKKβ, FL_Reg1
[9] = Table 12, 2.5 nM Regnase-1, 2.5 nM TBK1, AlphaScreen, read-out: 50% inhibition concentration, binding between Regnase-1 and TBK1, FL_Reg1

SMILES: CC[C@H](C)[C@@H]1NC(=O)[C@H](CC(=O)O)NC(=O)[C@H](C)N(C)C(=O)C[C@@H](C(=O)N2CCCC2)NC(=O)[C@H](Cc2c[nH]c3ccccc23)NC(=O)[C@H](CC(=O)O)NC(=O)[C@H](Cc2c[nH]c3ccccc23)NC(=O)[C@H](Cc2ccc(O)cc2)NC(=O)[C@H](CC(=O)O)NC(=O)[C@H](Cc2ccccc2)NC(=O)[C@H](Cc2c[nH]c3ccccc23)NC1=O [PP17] (HELM PEPTIDE1{[meA].D.I.W.F.D.Y.W.D.W.D.[C1CCN([*:1])C1]}$PEPTIDE1,PEPTIDE1,1:R1-11:R3$$$V2.0)
- IC50 [1, 4]: 0.5 µM
- IC50 [2, 5]: < 0.06 µM
- IC50 [3, 6]: < 0.06 µM

SMILES: CC(C)[C@@H]1NC(=O)[C@H](CCCCN)NC(=O)[C@H](Cc2ccc(O)cc2)NC(=O)[C@H](Cc2c[nH]c3ccccc23)NC(=O)[C@H](CO)NC(=O)[C@H]([C@@H](C)O)NC(=O)[C@H](C)N(C)C(=O)C[C@@H](C(=O)N2CCCC2)NC(=O)[C@H](CCC(N)=O)NC(=O)CNC(=O)[C@H](Cc2c[nH]c3ccccc23)NC(=O)[C@H](CC(N)=O)NC1=O [PP1] (HELM PEPTIDE1{[meA].T.S.W.Y.K.V.N.W.G.Q.D.[C1CCN([*:1])C1]}$PEPTIDE1,PEPTIDE1,1:R1-12:R3$$$V2.0)
- IC50 [1, 7]: 28.1 µM
- IC50 [2, 8]: > 62.1 µM
- IC50 [2, 5]: > 62.1 µM
- IC50 [3, 9]: > 62.1 µM
- IC50 [3, 6]: > 62.1 µM

SMILES: CC[C@H](C)[C@@H]1NC(=O)[C@H](CC(N)=O)NC(=O)[C@H](Cc2ccc(O)cc2)NC(=O)[C@H](Cc2c[nH]c3ccccc23)NC(=O)[C@H](CO)NC(=O)[C@H](CC(N)=O)NC(=O)[C@H](CO)NC(=O)[C@H](Cc2ccccc2)NC(=O)[C@H](CC(N)=O)NC(=O)[C@H](C)N(C)C(=O)C[C@@H](C(=O)N2CCCC2)NC(=O)[C@H](Cc2c[nH]c3ccccc23)NC1=O [PP16] (HELM PEPTIDE1{[meA].N.F.S.N.S.W.Y.N.I.W.D.[C1CCN([*:1])C1]}$PEPTIDE1,PEPTIDE1,1:R1-12:R3$$$V2.0)
- IC50 [1, 4]: 20.6 µM
- IC50 [2, 5]: > 62.1 µM
- IC50 [3, 6]: 20.2 µM

SMILES: CC[C@H](C)[C@@H]1NC(=O)[C@H](CCCNC(=N)N)NC(=O)[C@H](Cc2ccc(O)cc2)NC(=O)[C@H](Cc2c[nH]c3ccccc23)NC(=O)[C@H](CO)NC(=O)[C@H](CC(N)=O)NC(=O)[C@H](C)N(C)C(=O)C[C@@H](C(=O)N2CCCC2)NC(=O)[C@H](CC(C)C)NC(=O)CNC(=O)[C@H](Cc2c[nH]c3ccccc23)NC1=O [PP22] (HELM PEPTIDE1{[meA].N.S.W.Y.R.I.W.G.L.D.[C1CCN([*:1])C1]}$PEPTIDE1,PEPTIDE1,1:R1-11:R3$$$V2.0)
- IC50 [1, 4]: 15 µM
- IC50 [2, 5]: 26.8 µM
- IC50 [3, 6]: 11.4 µM

SMILES: CC[C@H](C)[C@@H]1NC(=O)[C@H](Cc2c[nH]c3ccccc23)NC(=O)[C@H](CCCNC(=N)N)NC(=O)[C@H](Cc2ccccc2)NC(=O)[C@H](CCC(N)=O)NC(=O)[C@H](C)NC(=O)[C@H](Cc2ccccc2)NC(=O)[C@H](CCCCN)NC(=O)[C@H](C)N(C)C(=O)C[C@@H](C(=O)N2CCCC2)NC(=O)[C@@H]2CCCN2C(=O)[C@H](Cc2ccc(O)cc2)NC1=O [PP11] (HELM PEPTIDE1{[meA].K.F.A.Q.F.R.W.I.Y.P.D.[C1CCN([*:1])C1]}$PEPTIDE1,PEPTIDE1,1:R1-12:R3$$$V2.0)
- IC50 [1, 4]: 22.3 µM
- IC50 [2, 5]: > 62.1 µM
- IC50 [3, 6]: 60.9 µM

SMILES: CC[C@H](C)[C@@H]1NC(=O)[C@H](CC(N)=O)NC(=O)[C@H]([C@@H](C)CC)NC(=O)[C@H](Cc2ccc(O)cc2)NC(=O)[C@H](Cc2c[nH]c3ccccc23)NC(=O)[C@H](CO)NC(=O)[C@H](CC(N)=O)NC(=O)[C@H](C)N(C)C(=O)C[C@@H](C(=O)N2CCCC2)NC(=O)[C@H](Cc2c[nH]cn2)NC(=O)CNC(=O)[C@H](Cc2c[nH]c3ccccc23)NC1=O [PP15] (HELM PEPTIDE1{[meA].N.S.W.Y.I.N.I.W.G.H.D.[C1CCN([*:1])C1]}$PEPTIDE1,PEPTIDE1,1:R1-12:R3$$$V2.0)
- IC50 [1, 4]: 5.6 µM
- IC50 [2, 5]: 33.7 µM
- IC50 [3, 6]: 13.7 µM

SMILES: CC[C@H](C)[C@@H]1NC(=O)[C@H](CC(N)=O)NC(=O)[C@H](Cc2ccc(O)cc2)NC(=O)[C@H](Cc2c[nH]c3ccccc23)NC(=O)[C@H](CO)NC(=O)[C@H](CC(N)=O)NC(=O)[C@H](C)NC(=O)[C@H](Cc2ccc(O)cc2)NC(=O)CNC(=O)[C@H](C)N(C)C(=O)C[C@@H](C(=O)N2CCCC2)NC(=O)[C@H](Cc2c[nH]c3ccccc23)NC1=O [PP2] (HELM PEPTIDE1{[meA].G.Y.A.N.S.W.Y.N.I.W.D.[C1CCN([*:1])C1]}$PEPTIDE1,PEPTIDE1,1:R1-12:R3$$$V2.0)
- IC50 [1, 7]: 16.6 µM
- IC50 [2, 8]: 35.8 µM
- IC50 [3, 9]: 15.5 µM

SMILES: CC[C@H](C)[C@@H]1NC(=O)[C@H](CC(=O)O)NC(=O)[C@H](C)N(C)C(=O)C[C@@H](C(=O)N2CCCC2)NC(=O)[C@H](Cc2ccc(O)cc2)NC(=O)[C@H](CC(=O)O)NC(=O)[C@H](Cc2c[nH]c3ccccc23)NC(=O)[C@H](Cc2ccc(O)cc2)NC(=O)[C@H](CC(=O)O)NC(=O)[C@H](Cc2ccccc2)NC(=O)[C@H](Cc2c[nH]c3ccccc23)NC1=O [PP18] (HELM PEPTIDE1{[meA].D.I.W.F.D.Y.W.D.Y.D.[C1CCN([*:1])C1]}$PEPTIDE1,PEPTIDE1,1:R1-11:R3$$$V2.0)
- IC50 [1, 4]: 0.4 µM
- IC50 [2, 5]: < 0.06 µM
- IC50 [3, 6]: < 0.06 µM

SMILES: CC[C@H](C)[C@@H]1NC(=O)[C@H](Cc2ccc(O)cc2)NC(=O)[C@H](C)N(C)C(=O)C[C@@H](C(=O)N2CCCC2)NC(=O)[C@H](CC(C)C)NC(=O)[C@H](CC(=O)O)NC(=O)CNC(=O)[C@H](Cc2ccccc2)NC(=O)[C@H](Cc2ccccc2)NC(=O)[C@H](CC(=O)O)NC(=O)[C@H](Cc2c[nH]c3ccccc23)NC1=O [PP4] (HELM PEPTIDE1{[meA].Y.I.W.D.F.F.G.D.L.D.[C1CCN([*:1])C1]}$PEPTIDE1,PEPTIDE1,1:R1-11:R3$$$V2.0)
- IC50 [1, 7]: 19.5 µM
- IC50 [2, 8]: 47.7 µM
- IC50 [3, 9]: 24.4 µM

SMILES: CC[C@H](C)[C@@H]1NC(=O)[C@H](CCCCN)NC(=O)[C@H](Cc2ccc(O)cc2)NC(=O)[C@H](Cc2c[nH]c3ccccc23)NC(=O)[C@H](CO)NC(=O)[C@H](CC(N)=O)NC(=O)[C@H](C)N(C)C(=O)C[C@@H](C(=O)N2CCCC2)NC(=O)[C@H](CC(C)C)NC(=O)CNC(=O)[C@H](Cc2c[nH]c3ccccc23)NC1=O [PP21] (HELM PEPTIDE1{[meA].N.S.W.Y.K.I.W.G.L.D.[C1CCN([*:1])C1]}$PEPTIDE1,PEPTIDE1,1:R1-11:R3$$$V2.0)
- IC50 [1, 4]: 19.6 µM
- IC50 [2, 5]: 20.7 µM
- IC50 [3, 6]: 5.6 µM
